# From patent publication US12474327B2, “Metabolic profiling for the diagnosis of a subset of idiopathic autism spectrum disorder patients, ADS Phenotype 1” (STALICLA SA, priority 2018, dated 2025)
# How the values were obtained:
# [1] = test system: control lymphoblastoid cell lines (LCLs); experiment: Energy production capacity (NADH, tetrazolium colorimetric assay, Biolog Phenotype Mammalian MicroArrays); type: cell-based, human; conditions: for energy production capacity: in presence of D-Glucose
# Procedure: (§1) The data reported in the present patent were generated from lymphoblastoid cell lines (LCLs) generated from lymphocytes from peripheral blood. Tubes containing anticoagulant citrate dextrose (ACD) were used to collect blood samples via venipuncture, in order to ensure that the blood cells remained metabolically active. The tubes were kept at room temperature and processed within 24 hours.
# (§2) Cell lines were obtained by immortalization of lymphocytes from blood samples using Epstein-Barr virus. The lymphoblastoid cell lines were harvested in Sigma RPMI-1640 with 75 mL fetal bovine serum from Atlanta Biological (Lawrenceville, GA, USA) and 5 mL L-Glutamine and 5 mL antibiotic/antimycotic from Sigma-Aldrich (St. Louis, MO, USA).
# (§3) Energy production of cells was measured using commercially available Phenotype Mammalian MicroArrays (PM-Ms, Biolog, Hayward, CA, USA).
# (§4) The compound in each well was designed to be used by the cells, either as the sole energy source or as the metabolic effector influencing the utilization of an energy source (D-glucose) added in the cell suspension. The production of NADH per well was monitored using a colorimetric redox dye chemistry (Bochner et al. Assay of the multiple energy-producing pathways of mammalian cells. PLoS One 2011, 6(3):e18147). Before plating, cell viability and number were assessed utilizing a BioRad cell counter and a trypan blue dye.
# (§5) The concentration of live cells required for plating was 4×10^5 cells/mL, corresponding to 20,000 cells per well in a volume of 50 μL. Only cell lines with viability of 55% or above were utilized for the experiments and, in order to minimize artifacts and biases due to prolonged cell culturing of transformed cells, LCLs were not been utilized if they had reached 15 passages. Cells were incubated for 48 h at 37° C. in 5% CO2, using the modified Biolog IF-M1 medium.
# (§6) The Biolog IF-M1 medium was modified for plates PM-M1 by adding the following to 100 mL of Biolog IF-M1: 1.1 mL of 100× penicillin/streptomycin solution, 0.16 mL of 200 mM glutamine (final concentration 0.3 mM), and 5.3 mL of Fetal Bovine Serum (FBS, final concentration 5%). For plates PM-M6, 5.5 mM α-D-glucose was added instead of FBS.
# (§7) After this first incubation, Biolog Redox Dye Mix MB was added (10 μL/well) and the plates were incubated under the same conditions for an additional 24 hours. As the cells metabolized the energy source, tetrazolium dye in the media was reduced, producing a purple color according to the amount of NADH generated.
# (§8) For the last 24 hours of the experiment, plates were incubated in the Omnilog system, which collects optical density readings every 15 minutes, generating 96 data-points for each well. The system also elaborated the kinetic curve for the metabolic reaction in each well and extrapolated parameters such as slope, highest point, endpoint, area under the curve (AUC), and lag. The system performed parametric analysis by comparing kinetic curves of cases versus controls, both as individual sample or as cohorts.
# (§9) At the end of the 24-hour incubation, plates were analyzed utilizing a microplate reader with readings at 590 and 750 nm. The first value (A590) indicated the highest absorbance peak of the redox dye and the second value (A750) gave a measure of the background noise. The relative absorbance (A590-750) was calculated per well.
# (§10) Metabolic profiles of the same cell lines were then assessed after stimulation of the Nrf2 signaling pathway aiming to reproduce in control and Non-Ph1 cells the activation of the hub that occurs constitutively in ASD Ph1. In order to achieve the stimulation of the Nrf2 pathway, the cells were exposed to sulforaphane.
# [2] = test system: ASD non-Phenotype 1 lymphoblastoid cell lines (LCLs); experiment: as above; type: cell-based, human; conditions: for energy production capacity: ASD non-Phenotype 1 LCLs, in presence of D-Glucose
# Procedure: as §1, §2, §3, §4, §5, §6, §7, §8, §9, §10
# [3] = test system: ASD Phenotype 1 lymphoblastoid cell lines (LCLs); experiment: as above; type: cell-based, human
# Procedure: as §1, §2, §3, §4, §5, §6, §7, §8, §9, §10
# [4] = Singh K et al., PNAS 2014; cited from earlier work
# ASD Phenotype 1 patients = conditions: short oral treatment, described in EP 17200185.1; cited from earlier work
# core symptoms of ASD = conditions: ASD patients treated in Singh et al.; cited from earlier work
Structure (SMILES),energy production capacity ([1]; control LCLs),"energy production capacity after pretreatment with sulforaphane (Nrf2 activation) ([1]; control LCLs, in presence of glucose, addition of dibutyryl cAMP)","energy production capacity after pretreatment with sulforaphane (Nrf2 activation) ([2]; ASD non-Ph1 LCLs, in presence of glucose)",energy production capacity [2],"energy production capacity ([3]; Phenotype 1 cells, in the presence of D-Glucose, increasing concentrations)",tolerability of administration to humans [4],toxicity [4],"behavioral response (ADI-r SI, ADI-r C or ADI-r RI) (ASD Phenotype 1 patients)","metabolic profile (PCA of energy production capacity) ([1]; control cells exposed to sulforaphane, various carbon sources of energy)","metabolic profile (PCA of energy production capacity) ([2]; ASD non-Phenotype 1 cells exposed to sulforaphane, various carbon sources of energy)","effect on the dibutyryl cAMP-induced increase of energy production capacity ([3]; ASD Ph1 cells, D-Glucose, treated with sulforaphane)","effect on energy production capacity ([3]; ASD Phenotype 1 cell lines, various carbon sources of energy (FIG. 1, FIG. 2: D-Glucose, maltose), exposed to sulforaphane)",core symptoms of ASD (as measured by the ADOS 2) (core symptoms of ASD)
"CCCC(=O)Nc1ncnc2c1ncn2[C@@H]1O[C@@H]2COP(=O)(O)O[C@H]2[C@H]1OC(=O)CCC [dibutyryl cAMP, dibutyril-cyclic adenosine monophosphate]",no effect,restituted,restituted,no effect,increased,,,,,,,,
"C[S@@+]([O-])CCCCN=C=S [sulforaphane, 1-isothiocyanato-4R-(methylsulfinyl)butane]",produced a decrease,,,produced a decrease,,well tolerated,low toxicity,negative behavioral response,comparable to Ph1 cells at baseline,comparable to Ph1 cells at baseline,did not modify the response to dibutyryl cAMP,lack of effect,significant improvements
